Inhibition and IC50 data for seven compounds are collected here from US20250281424A1 (New York Blood Center, Inc, priority 2020, published 2025).

The target in this assay is T1, human PF4 (Homo sapiens, UniProt P02776).
T1 construct: PF4 is a 70 amino acid, lysine-rich 7.8 kDa platelet-specific protein; made in house; host or cells: Escherichia coli BL21DE3 pLysS (pT7-7) and/or Drosophila S2 cells
T1 sequence (P02776 32-101): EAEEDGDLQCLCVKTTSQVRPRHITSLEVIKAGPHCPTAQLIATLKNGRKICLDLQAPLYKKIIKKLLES
In words: Inhibition of PF4 tetramer formation (BS3 cross-linking, SDS-PAGE). It counts as biochemical. The settings on record: for inhibition at 1 µM: 1 μM inhibitor; for inhibition at 1 µM / inhibition at 3 µM / inhibition at 5 µM / inhibition at 10 µM: read-out: % inhibition of PF4 tetramer formation at single concentration of inhibitor; for inhibition at 3 µM: 3 μM inhibitor (column A); for inhibition at 5 µM: 5 μM inhibitor; for inhibition at 10 µM: 10 μM inhibitor (column A); for IC50: read-out: IC50 of PF4 tetramer formation inhibition. In short, it runs like this: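 Recombinant human wild-type PF4 (E. coli-expressed, heparin-purified), 10 μg/ml in PBS, incubated with compound 15 min at 37° C or 60 min at room temperature, then cross-linked with 0.2 mM BS3 for 30 min at room temperature. Reducing 12% SDS-PAGE; bands quantified as % tetramer, trimer, dimer, monomer versus compound-free control.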

The structures appear in SMILES notation.

With `CC(C)OCC(=O)C1C(=O)c2ccc(Oc3ccc4c(c3)C(=O)C(C(=O)COC(C)C)C4=O)cc2C1=O` (stereo not shown) [Example 378, 5-({1,3-dioxo-2-[2-(propan-2-yloxy)acetyl]-2,3-dihydro-1H-inden-5-yl}oxy)-2-[2-(propan-2-yloxy)acetyl]-2,3-dihydro-1H-indene-1,3-dione], the inhibition at 1 µM is 39% and the inhibition at 3 µM was 69%.
The like results for `CC(C)[C@@H](N)C(=O)C1C(=O)c2ccc(C(=O)c3ccc4c(c3)C(=O)C(C(=O)[C@H](N)C(C)C)C4=O)cc2C1=O` (stereo partly drawn) [Example 352, 2-[(2R)-2-amino-3-methylbutanoyl]-5-{2-[(2R)-2-amino-3-methylbutanoyl]-1,3-dioxo-2,3-dihydro-1H-indene-5-carbonyl}-2,3-dihydro-1H-indene-1,3-dione] were, in that order, 35% and 78%.
As to `CC[C@H](C)[C@H](NC(=O)C1C(=O)c2ccc(S(=O)(=O)c3ccc4c(c3)C(=O)C(C(=O)N[C@H](C(=O)OC)[C@@H](C)CC)C4=O)cc2C1=O)C(=O)OC` (stereo partly drawn) [Example 333, methyl (2S,3S)-2-({5-[(2-{[(2S,3S)-1-methoxy-3-methyl-1-oxopentan-2-yl]carbamoyl}-1,3-dioxo-2,3-dihydro-1H-inden-5-yl)sulfonyl]-1,3-dioxo-2,3-dihydro-1H-inden-2-yl}formamido)-3-methylpentanoate], the inhibition at 1 µM is 15% and the inhibition at 3 µM amounted to 21%.
`COc1ccccc1NC(=O)C1C(=O)c2ccc(S(=O)(=O)c3ccc4c(c3)C(=O)C(C(=O)Nc3ccccc3OC)C4=O)cc2C1=O` (stereo not shown) [Example 69, 5,5′-sulfonylbis(n-(2-methoxyphenyl)-1,3-dioxo-2,3-dihydro-1h-indene-2-carboxamide)]: the inhibition at 5 µM worked out at 60%, the inhibition at 10 µM is 85% and the IC50 amounted to 1050 nM.
For `CC(C)(C)OC(=O)N[C@@H](CC(=O)O)C(=O)C1C(=O)c2ccc(C(=O)c3ccc4c(c3)C(=O)C(C(=O)[C@H](CC(=O)O)NC(=O)OC(C)(C)C)C4=O)cc2C1=O` (stereo partly drawn) [Example 188, (3S)-3-{[(tert-butoxy)carbonyl]amino}-4-(5-{2-[(2S)-2-{[(tert-butoxy)carbonyl]amino}-3-carboxypropanoyl]-1,3-dioxo-2,3-dihydro-1H-indene-5-carbonyl}-1,3-dioxo-2,3-dihydro-1H-inden-2-yl)-4-oxobutanoic acid] the same measures were 88%, 94% and 2300 nM.
As to `CC[C@H](C)[C@H](NC(=O)C1C(=O)c2ccc(Oc3ccc4c(c3)C(=O)C(C(=O)N[C@H](C(=O)OC)[C@@H](C)CC)C4=O)cc2C1=O)C(=O)OC` (stereo partly drawn) [Example 331, methyl (2S,3S)-2-({5-[(2-{[(2S,3S)-1-methoxy-3-methyl-1-oxopentan-2-yl]carbamoyl}-1,3-dioxo-2,3-dihydro-1H-inden-5-yl)oxy]-1,3-dioxo-2,3-dihydro-1H-inden-2-yl}formamido)-3-methylpentanoate], the inhibition at 1 µM was determined as 37% and the inhibition at 3 µM worked out at 66%.
As for `O=C1c2ccc(S(=O)(=O)c3ccc4c(c3)C(=O)C(C(=S)NC3CC3)C4=O)cc2C(=O)C1C(=S)NC1CC1` (stereo not shown) [Example 329, N-cyclopropyl-5-{[2-(cyclopropylcarbamothioyl)-1,3-dioxo-2,3-dihydro-1H-inden-5-yl]sulfonyl}-1,3-dioxo-2,3-dihydro-1H-indene-2-carbothioamide], the inhibition at 1 µM turned out to be 22% and the inhibition at 3 µM is 50%.

For orientation: IC50 means the concentration needed to halve the response being measured.
